Biological target: Lysophosphatidic acid receptor 1 (Homo sapiens, UniProt Q92633)
Test: In Vitro Assay
Method: CHO-hLPA1 cell lines are cultured in a humidified incubator at 5% CO2 in DMEM/F-12 (1:1) MIXTURE with 2 mM Glutamax, supplemented with 10% of Foetal Bovine Serum, 1 mM Sodium Pyruvate, 11 mM Hepes and 1× Penicillin/Streptomycin. […] Serial dilutions (1:3 or 1:4, 11 points CRC) of compounds are performed in 100% DMSO at 200× the final concentration. […] The final concentration of DMSO in the assay will be 0.5% in each well. Medium is removed by aspiration and cells are then incubated with 30 μl of a loading solution containing 5 μM of the cytoplasmic Ca2+ indicator Cal-520 AM in Assay Buffer containing 2.5 mM probenecid for 30 min at 37° C. incubator (cell loading). The loaded cell plates are transferred into the FLIPR instrument and calcium responses are monitored during the on-line addition protocols. For testing of compounds, after the cell loading, 10 μl/well of 4× antagonists' solution was added onto the cells. After 30 min pre-incubation (at 37° C.), 10 μl/well of 5× concentrated LPA EC80 was added and Ca2+ mobilization responses was followed during the on-line addition protocol. Intracellular peak fluorescence values subtracted by baseline fluorescence are exported and analysed to determine IC50 values, respectively.

Chain of Lysophosphatidic acid receptor 1 (Q92633 whole entry): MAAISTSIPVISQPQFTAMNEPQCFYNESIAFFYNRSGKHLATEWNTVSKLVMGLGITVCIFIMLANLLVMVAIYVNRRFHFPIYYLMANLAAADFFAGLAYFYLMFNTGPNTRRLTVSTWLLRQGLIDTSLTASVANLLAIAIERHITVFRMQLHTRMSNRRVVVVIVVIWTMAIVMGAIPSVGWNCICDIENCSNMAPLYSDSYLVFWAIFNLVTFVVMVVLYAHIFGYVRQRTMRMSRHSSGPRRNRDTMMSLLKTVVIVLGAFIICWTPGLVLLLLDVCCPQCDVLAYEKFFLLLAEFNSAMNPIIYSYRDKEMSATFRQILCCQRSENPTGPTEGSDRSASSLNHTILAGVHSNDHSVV

IC50: < 50 nM
SMILES: Cc1ccccc1[C@@H](C)OC(=O)Nc1c(C)noc1-c1ccc(NC(=O)[C@H]2CCCC[C@@H]2C(=O)O)c(C)n1 [US12454530, Example 32]
